Data reported in ChEMBL document CHEMBL3301472, “MMV Malaria Box HIV and cytotoxicity screening”.

Experiments:
[1] = system: Human immunodeficiency virus 1; experiment: MMV: HIV NL4-3 CXCR4-tropic replication-competent virus, virus & compound washed out Day 1 pi, P24 ELISA Day 7 pi, U87-CD4-CXCR4, % inhibition at 5 mM compound; type: functional; set-up: dose or concentration left out as unconfirmed; settings: Human immunodeficiency virus 1, NL4-3, U87.CD4.CXCR4
[2] = MMV: MTT Cytotoxicity Assay Day 3 pi, U87-CD4-CCR5 cells, % cell death @ 5mM compound; type: toxicity, cell-based; settings: human, u87-cd4-ccr5, 5000 µM
[3] = system: Human immunodeficiency virus 1; experiment: MMV: HIV CXCR4-tropic env NL4-3 pseudovirus assay produces luciferase signal in lieu of replicating viral particles Day 3 pi, U87-CD4-CXCR4, % inhibition at 5 mM compound; type: functional; set-up: dose or concentration left out as unconfirmed; settings: Human immunodeficiency virus 1, NL4-3, U87.CD4.CXCR4, 72 h
[4] = MMV: MTT Cytotoxicity Assay Day 7 pi of Assay #10 (NO washout), U87-CD4-CCR5 cells, % cell death @ 5mM compound; type: toxicity, cell-based; settings: human, u87-cd4-ccr5, 5000 µM
[5] = system: Human immunodeficiency virus 1; experiment: MMV: HIV CXCR4-tropic env HxB2 pseudovirus assay produces luciferase signal in lieu of replicating viral particles Day 3 pi, U87-CD4-CXCR4, % inhibition at 5 mM compound; type: functional; set-up: dose or concentration left out as unconfirmed; settings: Human immunodeficiency virus 1, HxB2, U87.CD4.CXCR4, 72 h
[6] = system: Human immunodeficiency virus 1; experiment: MMV: HIV CCR5-tropic env JRFL pseudovirus assay produces luciferase signal in lieu of replicating viral particles Day 3 pi, U87-CD4-CCR5, % inhibition at 5 mM compound; type: functional; set-up: dose or concentration left out as unconfirmed; settings: Human immunodeficiency virus 1, JR-FL, U87/CD4/CCR5, 72 h
[7] = MMV: MTT Cytotoxicity Assay Day 7 pi of Assay #6 (compound washed out Day 1 pi), U87-CD4-CCR5 cells, % cell death @ 5mM compound; type: toxicity, cell-based; settings: human, u87-cd4-ccr5, 5000 µM
[8] = MMV: MTT Cytotoxicity Assay Day 7 pi of Assay #11 (NO washout), U87-CD4-CXCR4 cells, % cell death @ 5mM compound; type: toxicity, cell-based; settings: human, u87-cd4-cxcr4, 5000 µM
[9] = MMV: MTT Cytotoxicity Assay Day 3 pi, U87-CD4-CXCR4 cells, % cell death @ 5mM compound; type: toxicity, cell-based; settings: human, u87-cd4-cxcr4, 5000 µM
[10] = MMV: MTT Cytotoxicity Assay Day 7 pi of Assay #7 (compound washed out Day 1 pi), U87-CD4-CXCR4 cells, % cell death @ 5mM compound; type: toxicity, cell-based; settings: human, u87-cd4-cxcr4, 5000 µM
[11] = system: Human immunodeficiency virus 1; experiment: MMV: HIV JRFL CCR5-tropic replication-competent virus, NO washout, P24 ELISA Day 7 pi, U87-CD4-CCR5, % inhibition at 5 mM compound; type: functional; set-up: dose or concentration left out as unconfirmed; settings: Human immunodeficiency virus 1, JR-FL, U87/CD4/CCR5, 168 h
[12] = system: Human immunodeficiency virus 1; experiment: MMV: HIV NL4-3 CXCR4-tropic replication-competent virus, NO washout, P24 ELISA Day 7 pi, U87-CD4-CXCR4, % inhibition at 5 mM compound; type: functional; set-up: dose or concentration left out as unconfirmed; settings: Human immunodeficiency virus 1, NL4-3, U87.CD4.CXCR4, 168 h

| Compound | inhibition [1] [%] | % Cell Death [2] | inhibition [3] [%] | % Cell Death [4] | inhibition [5] [%] | inhibition [6] [%] | % Cell Death [7] | % Cell Death [8] | % Cell Death [9] | % Cell Death [10] | inhibition [11] [%] | inhibition [12] [%] |
| --- | --- | --- | --- | --- | --- | --- | --- | --- | --- | --- | --- | --- |
| CCOC(=O)c1cnc2ccc(OC)cc2c1Nc1ccc(N2CCN(C)CC2)cc1 | 8 | -13 | 6 | 11 | -1 | -2 | 5 | -14 | 37 | 17 |  |  |
| Cc1cc(C)c2c(c1)OCN(Cc1ccccc1Cl)C2 |  | -12 |  | -6 |  |  | 20 | 33 | 31 | -14 | -2 |  |
| CCc1c(C)c(=N)c2ccccc2n1C.I |  | 22 |  | -10 |  |  | 30 | -5 | 100 | -17 | 8 |  |
| Cc1ccc(C(=O)c2oc3ccc4c(C)cc(=O)oc4c3c2C)cc1 |  | 59 |  | 83 |  |  | 7 | 92 | 94 | 22 | 8 |  |
| CN(C)CCCNc1c2ccccc2nc2ccccc12 |  | 30 | 1 | 30 |  |  | 8 | -4 | 21 | 15 | 3 |  |
| COc1ccc(C(=O)Nc2ccc(Cl)cc2C(=O)Nc2ccncc2)cc1 |  | 14 |  | 0 |  |  | -7 | 33 | 22 | -11 | 0 |  |
| CCCc1c(C)nc2ccccc2c1O |  | 5 | 9 | 18 |  |  | 22 | 51 | 8 | 31 | -2 |  |
| Br.CCN(CC)S(=O)(=O)c1ccc(-c2csc(Nc3ccc(C)c(C)c3)n2)cc1 | 3 | -17 |  | 26 |  | -2 | 20 | 11 | 29 | -19 |  |  |
| Cc1cc(N(C)C)nc(Nc2ccc(NC(=O)Nc3ccccc3)cc2)n1 |  | 12 |  | 18 |  |  | -5 | -30 | 40 | -7 | 4 |  |
| CCN1CCN(c2cc(C)c3cc(NC(=O)c4ccc(OC)c(OC)c4)ccc3n2)CC1 |  | 95 |  | 43 |  |  | 93 | 55 | 36 | 61 | -2 |  |
| CCN1CCN(Cc2ccc(NC(=O)c3cc4ccc5cccnc5c4[nH]3)cc2)CC1 |  | -23 |  | 9 |  |  | 38 | 26 | 22 | -2 | 3 |  |
| c1ccc(CNc2nc(Nc3ccccc3)nc3ccccc23)cc1 |  | 36 |  | 27 | 9 | 6 | -8 | 0 | 53 | -7 |  | -2 |
